Patent publication US20080026417A1, “ASSAYS FOR TRICHOMONAL AND OTHER HYDROLASES” (priority 2002, published 2008)
Peptide text beside a SMILES is read from it. * marks the point of attachment. NH(4-MeO-2-naphthyl) = COc1cc(N*)cc2ccccc12; βNA = c1ccc2cc(N*)ccc2c1; Cbz = O=C(OCc1ccccc1)*; Bz = O=C(c1ccccc1)*

Columns and labels:
[1] = tested on: trichomonal hydrolases; test: Experiment 13: hydrolysis of peptide substrates by trichomonal hydrolases at low pH, no vaginal fluid; assay type: biochemical, Trichomonas vaginalis; design: key: −: No red color produced; +: Clearly visible red color produced; ++: Moderately intense red color produced; +++: Very intense red color produced; conditions: without vaginal fluid; threonine buffer pH 2.4; 2 mM substrate solution; 10 min 25° C.; Fast Garnet
Method: Forty μL of each substrate was pipetted into duplicate wells of a microtiter plate. The plate was covered with tape, placed into a 25° C. incubator, and allowed to warm. A diluted enzyme mixture was prepared by mixing one part (v/v) freshly-thawed trichomonal hydrolase solution to nine parts 2 mM L-cysteine solution. Forty μL of this mixture was added to one well of each pair of duplicate wells. For negative controls, 40 μL of 2 mM L-cysteine was added to the second well in each pair of duplicate wells. The plate was returned to the incubator and incubated for ten minutes. Forty μL of SDS/acetate solution was added to each well, followed by 40 μL of Fast Garnet solution. The intensity of color that developed in each well after five minutes was visually scored using the color scale presented in Table 13.1.

[2] = tested on: trichomonal hydrolases; test: Experiment 12: hydrolysis of ZRRR-MNA by trichomonal hydrolases in four buffers; assay type: biochemical, Trichomonas vaginalis; conditions: for Score: substrate ZRRR-MNA, Fast Red RL, 0-9 scale
Method: Fifty μL of each buffer solution, at pH 2.0, 2.2, 2.4, or 2.6, was pipetted into separate wells of a microtiter plate. Twenty-five μL of 8 mM ZRRR-MNA and 25 μL of 10% trichomonal hydrolase solution were added to each well, and 20 μL were then removed from each well for measurement of final pH. Ten minutes after the mixtures were made, a Dacron swab was inserted into each well to absorb the liquid, then each swab was rubbed on a Fast Red RL film. The intensity of pink color that developed on each swab after five minutes was visually scored in 0.5 unit increments using the 0-9 color scale presented in Table 11.1 of the preceding example.

[3] = pH 2.0 Buffer after mixing with substrate and trichomonal hydrolase solution
[4] = pH 2.2 Buffer after mixing with substrate and trichomonal hydrolase solution
[5] = pH 2.4 Buffer after mixing with substrate and trichomonal hydrolase solution
[6] = pH 2.6 Buffer after mixing with substrate and trichomonal hydrolase solution

| Compound | Color Score [1] | also measured |
| --- | --- | --- |
| NC(N)=NCCCC(NC(=O)c1ccccc1)C(=O)Nc1ccc2ccccc2c1 (racemic) [BZ-DL-Arg-βNA] | − |  |
| O=C(O)CC(O)C(=O)O (racemic) [DL-malic acid] |  | Score ([2]; pH 2.0 Buffer (100 mM)): 4.5; Final pH [2, 3]: pH 2.4; Score ([2]; pH 2.2 Buffer (100 mM)): 5.5; Final pH [2, 4]: pH 2.7; Score ([2]; pH 2.4 Buffer (100 mM)): 6.0; Final pH [2, 5]: pH 2.8; Score ([2]; pH 2.6 Buffer (100 mM)): 6.0; Final pH [2, 6]: pH 2.9 |
| C[C@H](N)C(=O)N[C@@H](C)C(=O)Nc1ccc2ccccc2c1 [Ala-Ala-βNA] (H-Ala-Ala-βNA) | − |  |
| C[C@H](N)C(=O)Nc1ccc2ccccc2c1 [Ala-βNA] | − |  |
| N=C(N)NCCC[C@H](NC(=O)[C@@H](N)CCCNC(=N)N)C(=O)Nc1ccc2ccccc2c1 [Arg-Arg-βNA] (H-Arg-Arg-βNA) | − |  |
| COc1cc(NC(=O)[C@@H](N)CCCN=C(N)N)cc2ccccc12 [Arg-MNA] | − |  |
| NC(N)=NCCC[C@H](N)C(=O)Nc1ccc2ccccc2c1 [Arg-βNA] | − |  |
| COc1cc(NC(=O)[C@H](C)NC(=O)[C@H](C)NC(=O)[C@H](CCC(N)=O)NC(=O)OC(C)(C)C)cc2ccccc12 [BOC-Gln-Ala-Ala-MNA] | − |  |
| COc1cc(NC(=O)C(CCCNC(=N)N)NC(=O)C(C)NC(=O)C(CCC(N)=O)NC(=O)OC(C)(C)C)cc2ccccc12 (stereo not drawn) [BOC-Gln-Ala-Arg-MNA] | − |  |
| COc1cc(NC(=O)[C@H](CCCNC(=N)N)NC(=O)c2ccccc2)cc2ccccc12 [BZ-Arg-MNA] | − |  |
| N=C(N)NCCC[C@H](NC(=O)[C@H](Cc1ccccc1)NC(=O)[C@@H]1CCCN1C(=O)c1ccccc1)C(=O)Nc1ccc2ccccc2c1 [BZ-Pro-Phe-Arg-βNA] (Bz-Pro-Phe-Arg-βNA) | − |  |
| COc1cc(NC(=O)C(CC(C)C)NC(=O)C(Cc2ccccc2)NC(=O)CNC(=O)C(CCCNC(=N)N)NC(=O)OCc2ccccc2)cc2ccccc12 (stereo not drawn) [CBZ-Arg-Gly-Phe-Leu-MNA] (Cbz-RGFL-{NH(4-MeO-2-naphthyl)}; configuration not given here) | − |  |
| COc1cc(NC(=O)C(CCCNC(=N)N)NC(=O)OCc2ccccc2)cc2ccccc12 (stereo not drawn) [CBZ-Arg-MNA] | − |  |
| COc1cc(NC(=O)[C@H](CCCNC(=N)N)NC(=O)CNC(=O)CNC(=O)OCc2ccccc2)cc2ccccc12 [CBZ-Gly-Gly-Arg-MNA] | − |  |
| CC(C)C[C@H](NC(=O)CNC(=O)CNC(=O)OCc1ccccc1)C(=O)Nc1ccc2ccccc2c1 [CBZ-Gly-Gly-Leu-βNA] (Cbz-Gly-Gly-Leu-βNA) | − |  |
| O=C(CNC(=O)OCc1ccccc1)NCC(=O)N[C@@H](Cc1ccccc1)C(=O)Nc1ccc2ccccc2c1 [CBZ-Gly-Gly-Phe-βNA] (Cbz-Gly-Gly-Phe-βNA) | − |  |
| COc1cc(NC(=O)C(CCCNC(=N)N)NC(=O)C2CCCN2C(=O)CNC(=O)OCc2ccccc2)cc2ccccc12 (stereo not drawn) [CBZ-Gly-Pro-Arg-MNA] | − |  |
| COc1cc(NC(=O)[C@H](CCCNC(=N)N)NC(=O)[C@H](CCCNC(=N)N)NC(=O)[C@H](CC(C)C)NC(=O)OCc2ccccc2)cc2ccccc12 [CBZ-Leu-Arg-Arg-MNA] | + |  |
| COc1cc(NC(=O)[C@H](CCCNC(=N)N)NC(=O)[C@H](CCCCN)NC(=O)[C@H](CCCCN)NC(=O)OCc2ccccc2)cc2ccccc12 [CBZ-Lys-Lys-Arg-MNA] | + |  |
| NCCCC[C@H](NC(=O)OCc1ccccc1)C(=O)Nc1ccc2ccccc2c1 [CBZ-Lys-βNA] | − |  |
| COc1cc(NC(=O)[C@H](CCCN=C(N)N)NC(=O)[C@H](CCCCN)NC(=O)[C@H](CCCCN)NC(=O)[C@@H](NC(=O)OCc2ccccc2)C(C)C)cc2ccccc12 [CBZ-Val-Lys-Lys-Arg-MNA] (Cbz-VKKR-{NH(4-MeO-2-naphthyl)}) | + |  |
| COc1cc(NC(=O)C(Cc2ccccc2)NC(=O)CNC(=O)C(N)CCC(N)=O)cc2ccccc12 (stereo not drawn) [Gln-Gly-Phe-MNA] | − |  |
| COc1cc(NC(=O)C(CCCN=C(N)N)NC(=O)CN)cc2ccccc12 (stereo not drawn) [Gly-Arg-MNA] | − |  |
| NCC(=O)N[C@@H](CCCN=C(N)N)C(=O)Nc1ccc2ccccc2c1 [Gly-Arg-βNA] (H-Gly-Arg-βNA) | − |  |
| NCC(=O)NCC(=O)Nc1ccc2ccccc2c1 [Gly-Gly-βNA] (H-Gly-Gly-βNA) | − |  |
| COc1cc(NC(=O)C(Cc2ccccc2)NC(=O)CN)cc2ccccc12 (stereo not drawn) [Gly-Phe-MNA] | − |  |
| NCC(=O)N[C@@H](Cc1ccccc1)C(=O)Nc1ccc2ccccc2c1 [Gly-Phe-βNA] (H-Gly-Phe-βNA) | − |  |

| Compound | Color Score [1] | also measured |
| --- | --- | --- |
| COc1cc(NC(=O)[C@@H]2CCCN2C(=O)CN)cc2ccccc12 [Gly-Pro-MNA] | − |  |
| NCC(=O)N[C@@H](Cc1c[nH]c2ccccc12)C(=O)Nc1ccc2ccccc2c1 [Gly-Trp-βNA] (H-Gly-Trp-βNA) | − |  |
| NCC(=O)Nc1ccc2ccccc2c1 [Gly-βNA] | − |  |
| NCC(=O)O [Glycine] |  | Score ([2]; pH 2.0 Buffer (100 mM)): 5.0; Final pH [2, 3]: pH 2.4; Score ([2]; pH 2.2 Buffer (100 mM)): 6.0; Final pH [2, 4]: pH 2.6; Score ([2]; pH 2.4 Buffer (100 mM)): 6.0; Final pH [2, 5]: pH 2.7; Score ([2]; pH 2.6 Buffer (100 mM)): 6.0; Final pH [2, 6]: pH 2.9 |
| COc1cc(NC(=O)C(CO)NC(=O)C(N)Cc2cnc[nH]2)cc2ccccc12 (stereo not drawn) [His-Ser-MNA] | − |  |
| N[C@@H](Cc1cnc[nH]1)C(=O)Nc1ccc2ccccc2c1 [His-βNA] | − |  |
| O=C(Nc1ccc2ccccc2c1)[C@@H]1C[C@@H](O)CN1 [Hyp-βNA] | − |  |
| CC[C@H](C)[C@H](N)C(=O)Nc1ccc2ccccc2c1 [Ile-βNA] | − |  |
| NCCCC[C@H](N)C(=O)O [L-lysine] |  | Score ([2]; pH 2.0 Buffer (100 mM)): 3.0; Final pH [2, 3]: pH 2.3; Score ([2]; pH 2.2 Buffer (100 mM)): 4.5; Final pH [2, 4]: pH 2.5; Score ([2]; pH 2.4 Buffer (100 mM)): 5.0; Final pH [2, 5]: pH 2.9; Score ([2]; pH 2.6 Buffer (100 mM)): 5.5; Final pH [2, 6]: pH 3.0 |
| CC(C)C[C@H](N)C(=O)N[C@@H](C)C(=O)Nc1ccc2ccccc2c1 [Leu-Ala-βNA] (H-Leu-Ala-βNA) | − |  |
| COc1cc(NC(=O)C(N)CC(C)C)cc2ccccc12.Cl (stereo not drawn) [Leu-MNA] | − |  |
| CC(C)C[C@H](N)C(=O)Nc1ccc2ccccc2c1 [Leu-βNA] | − |  |
| C[C@H](NC(=O)[C@@H](N)CCCCN)C(=O)Nc1ccc2ccccc2c1 [Lys-Ala-βNA] (H-Lys-Ala-βNA) | − |  |
| NCCCC[C@H](N)C(=O)Nc1ccc2ccccc2c1 [Lys-βNA] | − |  |
| N=C(N)NCCC[C@H](NC(=O)[C@@H](N)Cc1ccccc1)C(=O)Nc1ccc2ccccc2c1 [Phe-Arg-βNA] (H-Phe-Arg-βNA) | − |  |
| COc1cc(NC(=O)[C@@H](N)Cc2ccccc2)cc2ccccc12 [Phe-MNA] | − |  |
| N[C@@H](Cc1ccccc1)C(=O)Nc1ccc2ccccc2c1 [Phe-βNA] | − |  |
| COc1cc(NC(=O)C(CCCN=C(N)N)NC(=O)C2CCCN2)cc2ccccc12 (stereo not drawn) [Pro-Arg-MNA] | − |  |
| O=C(Nc1ccc2ccccc2c1)[C@@H]1CCCN1 [Pro-βNA] | − |  |
| CSCC[C@H](NC(=O)[C@@H](N)CO)C(=O)Nc1ccc2ccccc2c1 [Ser-Met-βNA] (H-Ser-Met-βNA) | − |  |
| N[C@@H](CO)C(=O)N[C@@H](Cc1ccc(O)cc1)C(=O)Nc1ccc2ccccc2c1 [Ser-Tyr-βNA] (H-Ser-Tyr-βNA) | − |  |
| N[C@@H](CO)C(=O)Nc1ccc2ccccc2c1 [Ser-βNA] | − |  |
| N[C@@H](Cc1c[nH]c2ccccc12)C(=O)Nc1ccc2ccccc2c1 [Trp-βNA] | − |  |
| CC(C)[C@H](N)C(=O)Nc1ccc2ccccc2c1 [Val-βNA] | − |  |
| CBZ-Val-Leu-Arg-MNA | + |  |
| Cbz-Arg-Arg-βNA | − |  |
| Pro-MNA | − |  |
